SMILES strings stand for the structures.

In one test the target is Cathepsin S (Homo sapiens, UniProt P25774). Description: Cathepsin S inhibition assay (fluorogenic peptide substrate). The class given is biochemical. As to conditions: Table II, compounds of Formula I; read-out: Ki Cat. S. The method, then:
“Inhibition constant”, Ki, is the dissociation constant of the enzyme-inhibitor complex, or the reciprocal of the binding affinity of the inhibitor to the enzyme. […] The inhibited rates are then fit by nonlinear regression to the following equation: […]
The assumption being made for the classical inhibition described above is that the free inhibitor concentration is equal to the total inhibitor concentration.
Kinetic measurements are performed in a total reaction volume of 30 μl in 384-well microtiter plates. […] The reactions are initiated by adding the substrate, acetyl-histidine-proline-valine-lysine-amino carbamoyl coumarin, to a final concentration of 50 μM. The rate of substrate hydrolysis is measured by monitoring the increase in fluorescence at an excitation wavelength of 380 nm and an emission wavelength of 450 nm that results from cleavage of the aniline bond in the substrate by the enzyme.

Another test concerns the target T1, Cathepsin K (Homo sapiens, UniProt P43235).
T1 sequence (P43235 115-329): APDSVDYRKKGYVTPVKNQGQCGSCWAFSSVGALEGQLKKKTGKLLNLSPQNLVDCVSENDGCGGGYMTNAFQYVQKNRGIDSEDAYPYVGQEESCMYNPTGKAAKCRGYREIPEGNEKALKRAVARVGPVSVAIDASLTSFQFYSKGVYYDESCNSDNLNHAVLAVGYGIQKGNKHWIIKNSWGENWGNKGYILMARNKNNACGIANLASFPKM
Description: Cathepsin K inhibition assay (fluorogenic peptide substrate); selectivity ratio vs cathepsin S. As to conditions: ratio of cathepsin K inhibition constant to cathepsin S inhibition constant; Table II. The class given is biochemical. The method, then:
The optimal substrate for cathepsin K, acetyl-lysine-histidine-proline-lysine-amino carbamoyl coumarin, was identified from screening a combinatorial library of fluorogenic peptide substrates (Harris, J. L., B. J. Backes, et al., Proc Natl Acad Sci USA 2000, 97(14), 7754-9). Kinetic measurements are performed in a total reaction volume of 30 μl in 384-well microtiter plates. […] The reactions are initiated by adding the substrate, acetyl-lysine-histidine-proline-lysine-amino carbamoyl coumarin, to a final concentration of 40 μM. The rate of substrate hydrolysis is measured by monitoring the increase in fluorescence at an excitation wavelength of 380 nm and an emission wavelength of 450 nm that results from cleavage of the aniline bond in the substrate by the enzyme. The apparent inhibition constants for the compounds are determined from the enzyme progress curves ([…]. Elrod, et al., Anal Biochem 2000, 286(1), 45-50) and are then used to calculate the inhibition constants for competitive inhibitors. Selectivity for cathepsin S in the presence of cathepsin isozymes was determined by the ratio of the cathepsin isozyme inhibition constant of a compound of the present invention to the cathepsin S inhibition constant of the same compound.

Cathepsin S, sequence (P25774 115-331, species assumed): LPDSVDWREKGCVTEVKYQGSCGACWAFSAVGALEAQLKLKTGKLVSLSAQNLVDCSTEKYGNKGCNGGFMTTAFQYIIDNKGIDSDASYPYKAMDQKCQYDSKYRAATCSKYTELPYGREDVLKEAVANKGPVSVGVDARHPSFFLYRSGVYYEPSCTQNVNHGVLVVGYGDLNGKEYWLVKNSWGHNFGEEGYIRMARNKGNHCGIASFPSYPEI

Usually Ki stands for the equilibrium dissociation constant of an inhibitor or competing ligand from its target. As to `COc1ccc(NCCNC(=O)[C@H](CC2CCCCC2)NC(=O)c2cc3cc(F)ccc3[nH]2)cc1` [Compound 113, (S)-5-Fluoro-1H-indole-2-carboxylic acid {2-cyclohexyl-1-[2-(4-methoxy-phenylamino)-ethylcarbamoyl]-ethyl}-amide], on Cathepsin S, the Ki was below 100 nM. Moreover, the “Selectivity for Cat. S over Cat. K” value at Cathepsin K was “+ (+, >10)”.

Take `COc1ccc(NCCNC(=O)[C@H](Cc2cccc(C)c2)NC(=O)c2cccc(C)c2)cc1` [Compound 238, (S)-N-{1-[2-(4-Methoxy-phenylamino)-ethylcarbamoyl]-2-m-tolyl-ethyl}-3-methyl-benzamide]: the Ki at Cathepsin S is below 100 nM. Further, on Cathepsin K, the “Selectivity for Cat. S over Cat. K” value was “+ (+, >10)”.

`COc1ccc(NCCNC(=O)[C@H](Cc2ccc(F)cc2)NC(=O)c2cccc(C)c2)cc1` [Compound 245, (S)-N-{2-(4-Fluoro-phenyl)-1-[2-(4-methoxy-phenylamino)-ethylcarbamoyl]-ethyl}-3-methyl-benzamide]: at Cathepsin S, the Ki is below 100 nM. At Cathepsin K, the “Selectivity for Cat. S over Cat. K” value is given as “+++ (+++, >1000)”.

With `COc1ccc(NCCNC(=O)[C@H](CC2CCCCC2)NC(=O)c2ccc(-c3ccc(Cl)cc3)cc2)cc1` [Compound 170, (S)-4′-Chloro-biphenyl-4-carboxylic acid {2-cyclohexyl-1-[2-(4-methoxy-phenylamino)-ethylcarbamoyl]-ethyl}-amide], the Ki at Cathepsin S is below 10000 nM. For the same compound, at Cathepsin K, the “Selectivity for Cat. S over Cat. K” value is “+ (+, >10)”.

For the compound `O=C(N[C@@H](CC1CCCCC1)C(=O)NCCNc1ccc(OC(F)(F)F)cc1)c1ccc(-c2cccc(F)c2)cc1` [Compound 198, (S)-3′-Fluoro-biphenyl-4-carboxylic acid {2-cyclohexyl-1-[2-(4-trifluoromethoxy-phenylamino)-ethylcarbamoyl]-ethyl}-amide], the Ki at Cathepsin S is below 1000 nM. Moreover, the “Selectivity for Cat. S over Cat. K” value on Cathepsin K is recorded as “+ (+, >10)”.

As for `COc1ccc(NCCNC(=O)[C@H](Cc2ccc([N+](=O)[O-])cc2)NC(=O)c2cccc(C)c2)cc1` [Compound 244, (S)-N-[1-[2-(4-Methoxy-phenylamino)-ethylcarbamoyl]-2-(4-nitro-phenyl)-ethyl]-3-methyl-benzamide], the Ki at Cathepsin S is below 1000 nM. Besides, the “Selectivity for Cat. S over Cat. K” value at Cathepsin K is listed as “+++ (+++, >1000)”.

Regarding `CS(=O)(=O)c1cccc(C(=O)N[C@@H](CC2CCCCC2)C(=O)NCCNc2ccc(F)cc2)c1` [Compound 296, N-(S)-{2-cyclohexyl-1-[2-(4-fluoro-phenylamino)-ethylcarbamoyl]-ethyl}-3-methanesulfonyl-benzamide], the Ki at Cathepsin S is below 100 nM. The “Selectivity for Cat. S over Cat. K” value at Cathepsin K was “+++ (+++, >1000)”.

Turning to `COc1ccc(NCCNC(=O)[C@H](Cc2ccccc2)NC(=O)c2cc(C)c(C)cc2C)cc1` [Compound 30, (S)-N-{1-[2-(4-Methoxy-phenylamino)-ethylcarbamoyl]-2-phenyl-ethyl}-2,4,5-trimethyl-benzamide], the inhibitory constant (Ki) on Cathepsin S was below 100 nM. The “Selectivity for Cat. S over Cat. K” value on Cathepsin K is recorded as “+ (+, >10)”.

As to `COc1ccc(NCCNC(=O)[C@H](Cc2ccc(-c3ccc(N(C)C)cc3)cc2)NC(=O)c2cccc(C)c2)cc1` [Compound 287, (S)-N-{2-(4′-Dimethylamino-biphenyl-4-yl)-1-[2-(4-methoxy-phenylamino)-ethylcarbamoyl]-ethyl}-3-methyl-benzamide], the Ki on Cathepsin S is below 1000 nM. For the same compound, the “Selectivity for Cat. S over Cat. K” value at Cathepsin K is on record as “++ (++, >100)”.

In the case of `COc1ccc(NCCNC(=O)[C@H](CC2CCCCC2)NC(=O)c2cccc(CN)c2)cc1` [Compound 199, (S)-3-Aminomethyl-N-{2-cyclohexyl-1-[2-(4-methoxy-phenylamino)-ethylcarbamoyl]-ethyl}-benzamide], the Ki at Cathepsin S is below 1000 nM. The “Selectivity for Cat. S over Cat. K” value at Cathepsin K is listed as “++ (++, >100)”.

As to `CC[C@@H](C(=O)N[C@@H](CC1CCCCC1)C(=O)NCCNc1ccc(F)cc1)c1ccccc1` [Compound 318, N-{2-cyclohexyl-1-(S)-[2-(4-fluoro-phenylamino)-ethylcarbamoyl]-ethyl}-2-(R)-phenyl-butyramide], the Ki on Cathepsin S was below 100 nM. Moreover, the “Selectivity for Cat. S over Cat. K” value at Cathepsin K was “+ (+, >10)”.

Take `O=C(N[C@@H](CC1CCCCC1)C(=O)NCCNc1ccc(F)cc1)c1ccoc1` [Compound 272, Furan-3-carboxylic acid (S)-{2-cyclohexyl-1-[2-(4-fluoro-phenylamino)-ethylcarbamoyl]-ethyl}-amide]: on Cathepsin S, the Ki is below 100 nM. Moreover, the “Selectivity for Cat. S over Cat. K” value on Cathepsin K is recorded as “++ (++, >100)”.

Consider `COc1ccc(NCCNC(=O)[C@H](Cc2ccc(-c3cccc(CO)c3)cc2)NC(=O)c2cccc(C)c2)cc1` [Compound 284, (S)-N-{2-(3′-Hydroxymethyl-biphenyl-4-yl)-1-[2-(4-methoxy-phenylamino)-ethylcarbamoyl]-ethyl}-3-methyl-benzamide], for which the Ki on Cathepsin S is below 1000 nM. Also, the “Selectivity for Cat. S over Cat. K” value at Cathepsin K is “++ (++, >100)”.

`COc1ccc(NCCNC(=O)[C@H](Cc2ccccc2)NC(=O)Nc2ccc(C(C)=O)cc2)cc1` [Compound 103, (S)-2-[3-(4-Acetyl-phenyl)-ureido]-N-[2-(4-methoxy-phenylamino)-ethyl]-3-phenyl-propionamide]: the inhibitory constant (Ki) on Cathepsin S is below 1000 nM. Moreover, the “Selectivity for Cat. S over Cat. K” value at Cathepsin K was “++ (++, >100)”.

In the case of `COc1ccc(NCCNC(=O)[C@H](CC2CCCCC2)NC(=O)c2ccc(F)c(F)c2)cc1` [Compound 146, (S)-N-{2-Cyclohexyl-1-[2-(4-methoxy-phenylamino)-ethylcarbamoyl]-ethyl}-3,4-difluoro-benzamide], the Ki on Cathepsin S was below 100 nM. For the same compound, the “Selectivity for Cat. S over Cat. K” value on Cathepsin K is reported as “+++ (+++, >1000)”.

Take `Cc1cccc(-c2ccc(C(=O)N[C@@H](CC3CCCCC3)C(=O)NCCNc3ccc(OC(F)(F)F)cc3)s2)c1` [Compound 47, 5-m-Tolyl-thiophene-2-carboxylic acid (S)-{2-cyclohexyl-1-[2-(4-trifluoromethoxy-phenylamino)-ethylcarbamoyl]-ethyl}-amide]: the Ki at Cathepsin S is below 100 nM. The “Selectivity for Cat. S over Cat. K” value at Cathepsin K is listed as “+++ (+++, >1000)”.

As to `COc1ccc(NCCNC(=O)[C@H](CC2CCCCC2)NC(=O)c2cccc(C)c2Cl)cc1` [Compound 108, (S)-2-Chloro-N-{2-cyclohexyl-1-[2-(4-methoxy-phenylamino)-ethylcarbamoyl]-ethyl}-3-methyl-benzamide], at Cathepsin S, the Ki was below 100 nM. For the same compound, the “Selectivity for Cat. S over Cat. K” value on Cathepsin K is recorded as “++ (++, >100)”.

As for `COc1ccc(NCCNC(=O)[C@H](Cc2ccc(C#N)cc2)NC(=O)c2cccc(C)c2)cc1` [Compound 240, (S)-N-{2-(4-Cyano-phenyl)-1-[2-(4-methoxy-phenylamino)-ethylcarbamoyl]-ethyl}-3-methyl-benzamide], the Ki at Cathepsin S was below 100 nM. For the same compound, the “Selectivity for Cat. S over Cat. K” value on Cathepsin K is “+++ (+++, >1000)”.

Consider `C[C@@H](C(=O)N[C@@H](CCC1CCCCC1)C(=O)NCCNc1ccc(OC(F)(F)F)cc1)c1ccccc1` [Compound 13, 4-Cyclohexyl-2-(S)-(2-(R)-phenyl-propionylamino)-N-[2-(4-trifluoromethoxy-phenylamino)-ethyl]-butyramide], for which the Ki at Cathepsin S was below 100 nM. Further, the “Selectivity for Cat. S over Cat. K” value at Cathepsin K is recorded as “+++ (+++, >1000)”.

On to `CC(C(=O)N[C@@H](CC1CCCCC1)C(=O)NCCNc1ccc(F)cc1)c1ccc(O)cc1` (stereo partly drawn) [Compound 311, N-{2-cyclohexyl-1-(S)-[2-(4-fluoro-phenylamino)-ethylcarbamoyl]-ethyl}-2-(4-hydroxy-phenyl)-propionamide], for which the Ki on Cathepsin S was below 100 nM. Moreover, the “Selectivity for Cat. S over Cat. K” value on Cathepsin K is “+ (+, >10)”.
